One test has as its system Frwt648 cells. The experiment in a line: Flow cytometry cell cycle analysis. The conditions noted are these: Frwt648, 2 and 4 μM, 48 h; range stated jointly for Frwt648 and mKSA and compounds 5 and 6. It is filed as cell-based. The procedure: (§1) Frwt648 cells [generated by SV40-transformation of F111 cells; (Hinzpeter and Deppert [1987])] and mKSA cells [SV40-transformed Balb/c fibroblasts; (Kit et al. [1969])] were grown in Dulbecco’s modified Eagle’s medium (DMEM) supplemented with 5% fetal calf serum (FCS; Biochrom, Berlin, Germany). The fibrosarcoma cell line HT1080 (Rasheed et al. [1974]) was grown in DMEM containing 10% FCS and 2 mM glutamine while both the prostate cancer cell line DU-145 (Stone et al. [1978]) and the ovary tissue cancer cell line OVCAR-3 (Hamilton et al. [1983]) were maintained in RPMI-1640 supplemented with 10% FCS. The pancreatic cancer cell line Colo357 (Morgan et al. [1980]) was grown in DMEM/RPMI (1:1) and the colon adenocarcinoma cell line SW480 (Leibovitz et al. [1976]) in Leibovitz L-15 medium, both containing 10% FCS and 2 mM glutamine. All media were supplemented with 100 U/ml penicillin and 100 μg/ml streptomycin (Gibco, Karlsruhe, Germany) and all cell lines were grown at 37°C in a humidified 5% carbon dioxide atmosphere.
(§2) Subconfluent Frwt648, mKSA, Colo357, OVCAR-3, HT1080, DU-145 and SW480 cells were treated with 2 or 4 μM of compounds 5 or 6 for 48 h. Untreated and DMSO treated cells served as control. Cells were harvested, washed once with phosphate-buffered saline (PBS), and prepared for cell cycle analysis using the “Cycle Test Plus Kit” (BD, San Jose, USA). […]
(In general: Flow cytometry measures light scatter and fluorescence of single cells or particles in a stream.)

A further test addresses T1, GST-rat CK1δ (Rattus norvegicus, UniProt Q06486).
T1 construct: made in house; host or cells: bacteria (pGEX-2T)
Description: In vitro kinase assay, GST-rat CK1δ. The conditions noted are these: for GST-wt CK1δ activity in the presence of inhibitor: inhibitor at its determined IC50 concentration (Fig. 7). The format is biochemical.

In a further test the test system is DU-145 cells. Description: Flow cytometry cell cycle analysis. The format is cell-based, human. The conditions noted are these: 48 h (data not shown); for dead cells: DU-145, 2 or 4 μM. The procedure: as §1
(§3) Subconfluent Frwt648, mKSA, Colo357, OVCAR-3, HT1080, DU-145 and SW480 cells were treated with 2 or 4 μM of compounds 5 or 6 for 48 h. Untreated and DMSO treated cells served as control. Cells were harvested, washed once with phosphate-buffered saline (PBS), and prepared for cell cycle analysis using the “Cycle Test Plus Kit” (BD, San Jose, USA). Cell cycle profiles were obtained using a FACScan flow cytometer and CellQuest software (BD Biosciences, San Jose, USA).

For another test, the system named is HT1080 cells. Description: Flow cytometry cell cycle analysis. The format is cell-based, human. The conditions noted are these: HT1080, 2 or 4 μM, 48 h (data not shown). Here is the method: as §1, §3
In a further test the test system is Colo357 cells. Description: Flow cytometry cell cycle analysis. The format is cell-based, human. The conditions noted are these: Colo357, 2 or 4 μM, 48 h. The procedure: as §1, §3
The next test deals with SW480 cells. The experiment in a line: Flow cytometry cell cycle analysis. The format is cell-based, human. The conditions noted are these: SW480, 2 or 4 μM, 48 h (data not shown). The procedure:
as §1, §3

Another test deals with OVCAR-3 cells. Description: Flow cytometry cell cycle analysis. The conditions noted are these: 48 h. It is filed as cell-based, human. Here is the method:
as §1, §3

The target of the next test is T2, GST-mouse CK1δTV1 (Mus musculus, UniProt Q9DC28).
T2 construct: made in house; host or cells: bacteria (pGEX-2T)
T2 sequence (Q9DC28 whole entry): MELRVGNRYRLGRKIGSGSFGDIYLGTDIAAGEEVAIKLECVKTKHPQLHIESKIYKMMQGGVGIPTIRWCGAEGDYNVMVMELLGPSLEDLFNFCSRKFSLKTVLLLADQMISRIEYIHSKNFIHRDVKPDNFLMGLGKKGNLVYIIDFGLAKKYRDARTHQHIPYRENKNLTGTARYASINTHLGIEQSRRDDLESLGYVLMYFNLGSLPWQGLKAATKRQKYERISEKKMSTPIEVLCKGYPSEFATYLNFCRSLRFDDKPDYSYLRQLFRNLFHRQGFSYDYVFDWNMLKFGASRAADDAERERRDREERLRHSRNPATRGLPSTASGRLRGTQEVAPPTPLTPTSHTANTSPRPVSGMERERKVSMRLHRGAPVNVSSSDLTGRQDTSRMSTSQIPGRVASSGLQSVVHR
The experiment in a line: In vitro kinase assay, GST-mouse CK1δTV1. The format is biochemical. An excerpt:
(§4) CK1δTV1 and 2 (transcription variants 1 and 2) were PCR amplified from mouse cDNA (5′-primer TV1 and 2: 5′-[…]-3′, 3′-primer TV1: 5′-[…]-3′, 3′-primer TV2: 5′-[…]-3′) and cloned into pcDNA3.1/V5-His© TOPO® TA cloning vector (Invitrogen, Karlsruhe, Germany) before being subcloned into pGEX-2T expression vector via BamHI to generate plasmids pGEX-2T-mouse CK1δTV1 (FP1170) and pGEX-2T-mouse CK1δTV2 (FP1171).
(§5) Expression and purification of the GST-fusion proteins GST-mouse p53^1–64 (FP267), GST-rat CK1δ (FP449), GST-rat CK1δ^M82F (FP1153), GST-mouse CK1δTV1 (FP1170), and GST-mouse CK1δTV2 (FP1171) was carried out as described elsewhere (Wolff et al. [2005]). Expression of fusion proteins FP1170 and 1171 was either performed at 37°C for 2 h, or at 15°C for 14 h. FP449 and FP1153 were always expressed at 15°C for 14 h.
(§6) In vitro kinase assays were carried out in the presence of various potential inhibitors of CK1δ at an ATP concentration of 0.01 mM and dimethyl sulfoxide (DMSO) solvent control as described previously (Knippschild et al. [1996]). Where indicated higher ATP concentrations (0.05, 0.1, 0.25 and 0.5 mM) were used. The fusion protein GST-mouse p53^1−64 (FP267) was used as substrate. Recombinant CK1δ kinase domain (CK1δkd, NEB, Frankfurt am Main, Germany), GST-rat CK1δ (FP449), GST-rat CK1δ^M82F (FP1153), GST-mouse CK1δTV1, GST-mouse CK1δTV2 and recombinant human CK1ε (Invitrogen, Karlsruhe, Germany) were used as sources of enzyme. Phosphorylated proteins were separated by SDS-PAGE and the protein bands were visualized on dried gels by autoradiography. The phosphorylated protein bands were excised and quantified by Cherenkov counting.

The next test concerns the target T3, GST-mouse CK1δTV2 (Mus musculus, UniProt Q9DC28).
T3 construct: made in house; host or cells: bacteria (pGEX-2T)
T3 sequence (Q9DC28 1-409 isoform Q9DC28-2): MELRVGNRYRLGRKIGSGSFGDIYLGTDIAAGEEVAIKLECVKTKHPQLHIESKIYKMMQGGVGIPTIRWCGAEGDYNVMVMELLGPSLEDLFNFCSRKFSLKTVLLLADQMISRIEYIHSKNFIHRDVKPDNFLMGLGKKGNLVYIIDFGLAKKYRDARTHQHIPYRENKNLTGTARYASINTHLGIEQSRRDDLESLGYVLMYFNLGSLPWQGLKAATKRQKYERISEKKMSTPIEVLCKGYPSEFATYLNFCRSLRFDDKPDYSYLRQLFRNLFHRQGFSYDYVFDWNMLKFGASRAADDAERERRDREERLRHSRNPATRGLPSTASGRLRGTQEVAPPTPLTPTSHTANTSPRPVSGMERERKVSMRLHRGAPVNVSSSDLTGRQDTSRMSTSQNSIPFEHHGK
Description: In vitro kinase assay, GST-mouse CK1δTV2. It is filed as biochemical.
Excerpt: as §4, §5, §6

Another test concerns mKSA cells. Description: Flow cytometry cell cycle analysis. The conditions noted are these: 2 and 4 μM, 48 h, range stated jointly for Frwt648 and mKSA and compounds 5 and 6. The format is cell-based, mouse. Here is the method:
as §1, §2

Another test has as its target T4, human CK1ε (Homo sapiens, UniProt P49674).
T4 construct: purchased Invitrogen, Karlsruhe, Germany
The experiment in a line: In vitro kinase assay, CK1ε. The format is biochemical. The conditions noted are these: for inhibition of CK1ε in initial screen: inhibitor 10 μM, 10 μM ATP (Fig. 1b).

The mark [1] stands for this setting: 0.01 mM ATP, substrate GST-mouse p53^1-64, mean ± SD.
Setting [2] is: 0.01 mM ATP, substrate GST-mouse p53^1-64, mean ± SD, read-out: IC50 (μM) GST-CK1δ TV1.
The mark [3] stands for this setting: 0.01 mM ATP, substrate GST-mouse p53^1-64, mean ± SD, read-out: IC50 (μM) GST-CK1δ TV2.

The text below walks through data of publication PMC3448056, “2-Benzamido-N-(1H-benzo[d]imidazol-2-yl)thiazole-4-carboxamide derivatives as potent inhibitors of CK1δ/ε” (Amino Acids, 2012).

Where “and” joins values, the source holds several entries; their conditions need not be identical. Equal entries are not always repeated. Where two headings read alike, the source gives them in different places.

T4 sequence (P49674 whole entry): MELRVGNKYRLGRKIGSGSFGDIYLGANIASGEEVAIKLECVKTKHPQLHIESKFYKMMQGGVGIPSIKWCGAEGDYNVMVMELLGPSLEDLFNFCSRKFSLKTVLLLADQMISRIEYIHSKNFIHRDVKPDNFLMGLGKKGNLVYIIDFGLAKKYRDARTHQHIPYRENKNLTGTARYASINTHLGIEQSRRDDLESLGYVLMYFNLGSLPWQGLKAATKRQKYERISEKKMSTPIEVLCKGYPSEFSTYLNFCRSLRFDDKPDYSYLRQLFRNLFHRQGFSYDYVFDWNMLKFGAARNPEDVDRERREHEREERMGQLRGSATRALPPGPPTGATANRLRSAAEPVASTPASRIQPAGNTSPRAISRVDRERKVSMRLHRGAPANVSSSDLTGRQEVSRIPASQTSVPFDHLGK
T1 sequence (Q06486 whole entry): as the sequence (Q9DC28 whole entry) above

For orientation: IC50 means the concentration that gives 50% inhibition. On to `O=C(Nc1nc2cc(Cl)c(F)cc2[nH]1)c1csc(NC(=O)c2ccccc2OC(F)(F)F)n1` [Compound 6, N-(5-Chloro-6-fluoro-1H-benzo[d]imidazol-2-yl)-2-(2-(trifluoromethoxy)benzamido)thiazole-4-carboxamide], for which the dead cells is 35–98% in the test on Frwt648 cells; at most 20% with DU-145 cells; at most 20% in the test on HT1080 cells; at most 20% in the test with SW480 cells; 35–98% in the test with mKSA cells. The IC50 on GST-rat CK1δ (setting [1]) was 0.042 ± 0.05 µM; at GST-mouse CK1δTV1 (setting [2]) it was 0.048 ± 0.02 µM; on GST-mouse CK1δTV2 (setting [3]), 0.055 ± 0.02 µM; against human CK1ε (setting [1]) it was 0.0326 µM and 0.033 µM. Also, at GST-rat CK1δ, the “GST-wt CK1δ activity in the presence of inhibitor” value is listed as “clearly decreased”. Further, the “effect on cell cycle distribution” value with Colo357 cells was “more cells appeared to be in the G1 phase”. Besides, in the test on OVCAR-3 cells (OVCAR-3, 4 μM), the “cells died upon treatment” value is 39%. Also, the “inhibition of CK1ε in initial screen” value on human CK1ε is “significant inhibition”.

Take `O=C(Nc1nc2ccc(C(F)(F)F)cc2[nH]1)c1csc(NC(=O)c2ccccc2OC(F)(F)F)n1` [Compound 5, 2-(2-(Trifluoromethoxy)benzamido)-N-(6-(trifluoromethyl)-1H-benzo[d]imidazol-2-yl)thiazole-4-carboxamide]: the dead cells with Frwt648 cells is given as 35–98%; in the test with DU-145 cells, at most 20%; with HT1080 cells, at most 20%; in the test on SW480 cells, at most 20%; in the test with mKSA cells it was 35–98%. The “GST-wt CK1δ activity in the presence of inhibitor” value at GST-rat CK1δ is recorded as “clearly decreased”. Moreover, the “higher affinity towards CK1δ than to CK1ε” value at GST-rat CK1δ (ratio of IC50 values CK1ε / CK1δ) is on record as “fivefold”. Also, the “susceptibility of DU-145 to treatment” value with DU-145 cells (2 or 4 μM) is “unsusceptible”. Also, the “effect on cell cycle distribution” value with Colo357 cells is given as “more cells appeared to be in the G1 phase”; with OVCAR-3 cells (OVCAR-3, 2 or 4 μM), “slight increase of cells in the G2 phase”. Moreover, the IC50 on GST-mouse CK1δTV1 (setting [2]) amounted to 0.022 ± 0.02 µM; against GST-mouse CK1δTV1 (IC50 CK1δTV1, 2 h, enzyme induced for 2 h at 37°C) it was 0.066 µM; on GST-mouse CK1δTV1 (enzyme induced for 14 h at 15°C, read-out: IC50 CK1δTV1, 14 h) it was 0.023 µM; at GST-mouse CK1δTV2 (setting [3]), 0.042 ± 0.02 µM; against GST-mouse CK1δTV2 (IC50 CK1δTV2, 2 h, enzyme induced for 2 h at 37°C) it was 0.064 µM; at GST-mouse CK1δTV2 (enzyme induced for 14 h at 15°C, read-out: IC50 CK1δTV2, 14 h), 0.043 µM. The “inhibition of CK1ε in initial screen” value at human CK1ε is given as “significant inhibition”.
